# Data as given in patent US11166942B2 (PRAXIS BIOTECH LLC, priority 2018, dated 2021).
# pIC50: −log10 of the molar value. Where two headings read alike, the source gives them in different places.
# What was measured:
# ATF4 = ATF4 expression inhibition assay (ATF4 5'UTR luciferase reporter, Tg-stressed HEK293T cells); type: cell-based, human; conditions: for inhibition at 0.1 µM: read-out: % ATF4 inhibition at 100 nM; for inhibition at 1 µM: read-out: % ATF4 inhibition at 1 μM; for pIC50: read-out: ATF4 inhbition IC50
# Method: The ATF4 reporter was prepared by fusing the human full length 5′UTR of ATF4 (NCBI Accession No. BC022088.2) upstream of the firefly luciferase coding sequence lacking the initiator methionine. The fused sequence was cloned into pLenti-EF1a-C-Myc-DDK-IRES-Puro cloning vector (Origen #PS100085) using standard methods. Virus production was carried out by using Lenti-X™ Packaging Single Shots Protocol (Clonetech #631276). Viral particles were used to transduce HEK293T cells (ATCC #CRL-3216, ATCC Manassas, Va.), which were subsequently selected with puromycin to generate stable cell line. Cells were maintained at 37° C. and 5% CO2 in DMEM-F12 (Hyclone #SH30023.02) supplemented with 10% heat-inactivated fetal bovine serum (Gibco #16000-044), 2 mM L-glutamine (Gibco #25030-081), 100 U/ml penicillin, and 100 μg/ml streptomycin (Gibco #15140-122).
# HEK293T cells carrying the ATF4 luciferase reporter were plated on 96-well plates (Nunc) at 10,000 cells per well. Cells were treated two days after seeding with 100 nM thapsigargin (Tg) (Sigma-Aldrich #T9033) in the presence of 100 nM or 1 μM. For the assessment of the half-maximal inhibitory concentration (IC50) for selected compounds, dose-response assays were performed. Compounds were serially diluted using DMSO ranging from 0.1 nM to 1 μM. Cells without treatment or cells treated with Tg alone were used as controls. Assay plates containing cells were incubated for 3 hours at 37° C.
# Luciferase reactions were performed using Luciferase Assay System (Promega #E1501) as specified by the manufacturer. Luminescence was read with an integration time of 1 s and a gain of 110 using a Cytation-5 multi-mode microplate reader (BioTek). Relative luminescence units were normalized to Tg treatment (0% inhibition) and untreated cells (100% inhibition) and the percentage of ATF4 inhibition was calculated.
# Percentages of ATF4 inhibition after induction with Tg in the presence of 100 nM or 1 μM of certain test compounds are shown in Table 2. Also shown in Table 2 is the calculated IC50 for certain test compounds. […] Accordingly, inhibition of ATF4 expression as a result of the test compound indicates suppression of the ISR pathway.
# [1] = test system: Chinese hamster ovary (CHO) cells; assay: Protein translation assay (puromycin labelling, CHO cells); type: cell-based; conditions: media alone = 100%; for activity at 1 µM: Cricetulus griseus, CHO
# Method: Chinese hamster ovary (CHO) cells were maintained at 37° C. and 5% CO2 in Dulbecco's Modified Eagle's Media (DMEM) supplemented with 10% fetal bovine serum, 2 mM L-glutamine, 100 U/ml penicillin, and 100 μg/ml streptomycin. After reaching 80% of confluence, cells were detached and seeded on 6 well plates in complete media, allowed to recover overnight and treated for 2 hours with 1 μM of the test compound (to assess protein synthesis levels in unstressed condition), or for 1 hour with 100 nM or 1 μM of the test compound and then co-treated with 300 nM Tg and 100 nM or 1 μM of the test compound (to assess the recovery of protein synthesis in a stressed condition). Cells treated with Tg alone were used as controls.
# After the 2 hours treatments, media were replaced by adding 10 μg/ml puromycin (Sigma Aldrich #P8833) in complete media for 30 min. Media were removed and cells were lysed with SDS-PAGE lysis buffer. Lysates were transferred to 1.5 ml tubes and sonicated for 3 min and total protein amount were quantified using BCA Protein Assay Kit (Pierce). Equal amount of protein (30 μg) was loaded on SDS-PAGE gels. Proteins were transferred onto 0.2 μm PVDF membranes (BioRad) and probed with primary antibodies diluted in Tris-buffered saline supplemented with 0.1% Tween 20 (Merck #S6996184 505) and 3% bovine serum albumin (Rockland #BSA-50).
# Puromycin (12D10) (Merck #MABE343) and β-actin (Sigma Aldrich #A5441) antibodies were used as primary antibody. A HRP-conjugated secondary antibody (Rockland) was employed to detect immune-reactive bands using enhanced chemiluminescence (ECL Western Blotting Substrate, Pierce). Quantification of protein bands was done by densitometry using ImageJ software.
# Percent increase of protein synthesis in unstressed cells (without Tg treatment) in the presence of media alone or certain test compounds is shown in Table 3 The percentage levels were normalized to the media alone condition, which correspond to 100% protein synthesis.
# Percent recovery of protein synthesis in stressed cells (with Tg treatment) due to the test compounds at 100 nM or 1 μM is also shown in Table 3. The levels were normalized to the media alone and to Tg alone conditions, which correspond to 100% and 0% respectively.
# [2] = 2 h, unstressed CHO cells, 1 μM, 2 hours, read-out: % Protein synthesis in unstressed cells (1 μM test compound)
# [3] = CHO cells stressed with 300 nM Tg, 1 μM compound, Tg alone = 0%, read-out: % Recovery of protein expression (1 μM test compound)
# [4] = Homo sapiens, HEK-293T, 3 h, 100 nM test compound, 100 nM thapsigargin, 3 hours, HEK293T ATF4 luciferase reporter
# [5] = Homo sapiens, HEK-293T, 3 h, 1 μM test compound, 100 nM thapsigargin, 3 hours, HEK293T ATF4 luciferase reporter
# [6] = 100 nM thapsigargin, 3 hours, HEK293T ATF4 luciferase reporter
# [7] = unstressed CHO cells, 1 μM, 2 hours
# [8] = Homo sapiens, HEK-293T, 3 h, 100 nM thapsigargin, 3 hours, HEK293T ATF4 luciferase reporter
Structure (SMILES),"inhibition at 0.1 µM (ATF4; Homo sapiens, HEK-293T, 3 h) [%]","inhibition at 1 µM (ATF4; Homo sapiens, HEK-293T, 3 h) [%]","pIC50 (ATF4; Homo sapiens, HEK-293T, 3 h)","activity at 1 µM [1, 2] [%]","activity at 1 µM [1, 3] [%]",inhibition at 0.1 µM (ATF4; [4]) [%],inhibition at 1 µM (ATF4; [5]) [%],"% ATF4 inhibition at 100 nM (ATF4; 100 nM test compound, 100 nM thapsigargin, 3 hours, HEK293T ATF4 luciferase reporter) [%]",pIC50 (ATF4; [6]),"% ATF4 inhibition at 1 μM (ATF4; 1 μM test compound, 100 nM thapsigargin, 3 hours, HEK293T ATF4 luciferase reporter) [%]","% Recovery of protein expression (1 μM test compound) ([1]; CHO cells stressed with 300 nM Tg, 1 μM compound, Tg alone = 0%) [%]","% Protein synthesis in unstressed cells (1 μM test compound) [1, 7] [%]",pIC50 (ATF4; [8]),"% Recovery of protein expression (100 nM test compound) ([1]; CHO cells stressed with 300 nM Tg, 100 nM compound, Tg alone = 0%) [%]"
"O=C(NN1CCC(NCCOc2ccc(Cl)c(F)c2)CC1)c1ccc2cc(Cl)ccc2n1 [Compound 23, 6-chloro-N-(4-((2-(4-chloro-3-fluorophenoxy)ethyl)amino)piperidin-1-yl)quinoline-2-carboxamide]",67.2,89.3,7.25,178,249,–,–,–,–,–,–,–,–,–
"O=C(NN1CCN(C[C@@H](O)COc2ccc(Cl)c(F)c2)CC1)c1ccc(Cl)cn1 [Compound 64, (R)-5-chloro-N-(4-(3-(4-chloro-3-fluorophenoxy)-2-hydroxypropyl)piperazin-1-yl)picolinamide]",–,–,–,109,34.7,20,56.6,–,–,–,–,–,–,–
O=C(COc1ccc(Cl)c(F)c1)NN1CCC(NC(=O)C2CNc3cc(Cl)ccc3O2)CC1 (centres unmarked) [Compound 32],–,–,–,–,–,–,–,85.7,7.92,92.4,74.8,115.7,–,–
"O=C(COc1ccc(Cl)c(F)c1)NN1CCN(C[C@@H](O)COc2ccc(Cl)c(F)c2)CC1 (single isomer, unassigned) [Compound 50]",–,–,–,96.8,7.4,97.2,100,–,–,–,–,–,8.71,–
"O=C(COc1ccc(Cl)c(F)c1)NC1CCN(NC(=O)C2CNc3cc(Cl)ccc3O2)CC1 (centres unmarked) [Compound 31, 6-chloro-N-(4-(2-(4-chloro-3-fluorophenoxy)acetamido)piperidin-1-yl)-3,4-dihydro-2H-benzo[b][1,4]oxazine-2-carboxamide]",–,–,–,–,–,94.8,92.7,–,8.38,–,–,155.4,–,–
"O=C(NN1CCN(CCCOc2ccc(Cl)c(F)c2)CC1)c1ccc2cc(Cl)ccc2n1 [Compound 17, 6-chloro-N-(4-(3-(4-chloro-3-fluorophenoxy)propyl)piperazin-1-yl)quinoline-2-carboxamide]",58.6,92.7,7.10,117,188,–,–,–,–,–,–,–,–,–
"O=C(NN1CCN(C[C@@H](O)COc2ccc(Cl)c(F)c2)CC1)c1ccc2cc(Cl)ccc2c1 [Compound 60, (R)-6-chloro-N-(4-(3-(4-chloro-3-fluorophenoxy)-2-hydroxypropyl)piperazin-1-yl)-2-naphthamide]",–,–,–,140,126,92.6,94.6,–,–,–,–,–,8.82,–
"O=C(NN1CCC(NCCOc2ccc(Cl)c(F)c2)CC1)c1cc2cc(Cl)ccc2o1 [Compound 24, 5-chloro-N-(4-((2-(4-chloro-3-fluorophenoxy)ethyl)amino)piperidin-1-yl)benzofuran-2-carboxamide]",88,99.5,7.49,144,183,–,–,–,–,–,–,–,–,–
"N#Cc1ccc(C(=O)NN2CCN(C[C@@H](O)COc3ccc(Cl)c(F)c3)CC2)nc1 [Compound 67, (R)-N-(4-(3-(4-chloro-3-fluorophenoxy)-2-hydroxypropyl)piperazin-1-yl)-5-cyanopicolinamide]",–,–,–,80,27.6,3.6,27.8,–,–,–,–,–,< 6.00,–
"O=C(COc1ccc(Cl)c(F)c1)NC1CCN(NC(=O)c2cc3cc(Cl)ccc3o2)CC1 [Compound 2, 5-chloro-N-(4-(2-(4-chloro-3-fluorophenoxy)acetamido)piperidin-1-yl)benzofuran-2-carboxamide]",–,–,–,87.5,123,87.1,97.6,–,–,–,–,–,7.74,40.2
"O=C(COc1ccc(Cl)c(F)c1)NN1CCC(NC[C@@H](O)COc2ccc(Cl)c(F)c2)CC1 (single isomer, unassigned) [Compound 52]",–,–,–,113,75.8,75.3,81.2,–,–,–,–,–,7.57,–
"O=C(NN1CCN(CC(O)COc2ccc(Cl)c(F)c2)CC1)c1cc2cc(Cl)ccc2o1 (centres unmarked) [Compound 19, 5-chloro-N-(4-(3-(4-chloro-3-fluorophenoxy)-2-hydroxypropyl)piperazin-1-yl)benzofuran-2-carboxamide]",87.3,95.8,7.94,115,175,–,–,–,–,–,–,–,–,–
"O=C(NN1CCN(C[C@@H](O)COc2ccc(Cl)c(F)c2)CC1)c1ccc(OC(F)(F)F)cc1 [Compound 62, (R)-N-(4-(3-(4-chloro-3-fluorophenoxy)-2-hydroxypropyl)piperazin-1-yl)-4-(trifluoromethoxy)benzamide]",–,–,–,99.5,40.2,85.9,88.8,–,–,–,–,–,> 7.00,–
"O=C(NN1CCC(NC[C@H](O)COc2ccc(Cl)c(F)c2)CC1)c1ccc2cc(Cl)ccc2n1 [Compound 57, (S)-6-chloro-N-(4-((3-(4-chloro-3-fluorophenoxy)-2-hydroxypropyl)amino)piperidin-1-yl)quinoline-2-carboxamide]",–,–,–,139,69.6,25.9,39.8,–,–,–,–,–,< 5.00,–
"O=C(NN1CCN(C[C@H](O)COc2ccc(Cl)c(F)c2)CC1)c1ccc2cc(Cl)ccc2n1 [Compound 59, (S)-6-chloro-N-(4-(3-(4-chloro-3-fluorophenoxy)-2-hydroxypropyl)piperazin-1-yl)quinoline-2-carboxamide]",–,–,–,180,98.7,38.8,66,–,–,–,–,–,6.24,–
